Bases are written 5' to 3'; sugars and linkages follow in the same order, as letters with counts (s phosphorothioate, o phosphodiester; PS: all linkages phosphorothioate). C may stand for cytosine or 5-methylcytosine; the collection does not tell. l = locked nucleic acid (LNA); d = 2'-deoxy (DNA)
The sequences below were run against HIF1A (assay: HeLa, 100 nM transfected, 24 h, mean of 3). Details: ASO.

In order of falling caspase activation (% of PBS control):
1. GGCAAGCATCCTG (sugars l4 d6 l3, PS)  618
2. GGCAAGCATCCTG (sugars l2 d9 l2, PS)  554
3. GTTACTGCCTTCTTAC (sugars l5 d6 l2 d2 l1, PS)  492
4. TGGCAAGCATCCTGTA (sugars l2 d13 l1, PS)  489
5. TGGCAAGCATCCTGTA (sugars l3 d8 l1 d1 l3, PS)  477
6. GTTACTGCCTTCTTAC (sugars l1 d1 l3 d7 l4, PS)  465
7. GTTACTGCCTTCTTAC (sugars l5 d6 l1 d1 l3, PS)  441
8. TGGCAAGCATCCTGTA (sugars ldlldddddddldlll, PS)  435
9. TGGCAAGCATCCTGTA (sugars l2 d1 l1 d7 l5, PS)  427
10. TACTGCCTTCTTA (sugars l2 d1 l1 d6 l3, PS)  427
11. TGGCAAGCATCCTGTA (sugars l2 d2 l1 d10 l1, PS)  423
12. TGGCAAGCATCCTGTA (sugars lldllddddddddldl, PS)  418
13. TGGCAAGCATCCTGTA (sugars llddldddddddldll, PS)  401
14. GGCAAGCATCCTG (sugars l1 d2 l1 d6 l3, PS)  397
15. TGGCAAGCATCCTGTA (sugars lddldddddddllldl, PS)  394
16. ACTGCCTTCTTAC (sugars l4 d8 l1, PS)  387
17. TGGCAAGCATCCTGTA (sugars l3 d1 l1 d9 l2, PS)  382
18. TGGCAAGCATCCTGTA (sugars lllldddddddldldl, PS)  372
19. GGCAAGCATCCTG (sugars l1 d2 l1 d7 l2, PS)  361
20. TGGCAAGCATCCTGTA (sugars lddldddddddlldll, PS)  356
21. TGGCAAGCATCCTGTA (sugars l3 d1 l1 d10 l1, PS)  354
22. TGGCAAGCATCCTGTA (sugars lddllddddddldlll, PS)  353
23. GTTACTGCCTTCTTAC (sugars l1 d10 l5, PS)  350
24. GCAAGCATCCTGT (sugars l4 d8 l1, PS)  344
25. TGGCAAGCATCCTGTA (sugars lldldddddddldddl, PS)  322
26. GTTACTGCCTTCTTAC (sugars ldldlddddddllddl, PS)  282
27. TGGCAAGCATCCTGTA (sugars ldlddddddddllldl, PS)  254
28. GTTACTGCCTTCTTAC (sugars ldldlddddddlldll, PS)  250
29. ACTGCCTTCTTAC (sugars l1 d1 l2 d7 l2, PS)  217
30. ACTGCCTTCTTAC (sugars ldllddddddldl, PS)  217
31. TGGCAAGCATCCTGTA (sugars ldddlddddddldldl, PS)  213
32. GTTACTGCCTTCTTAC (sugars llddlddddddlldll, PS)  208
33. GTTACTGCCTTCTTAC (sugars l3 d8 l1 d3 l1, PS)  198
34. GTTACTGCCTTCTTAC (sugars ldlldddddddldlll, PS)  195
35. GTTACTGCCTTCTTAC (sugars ldllddddddddlldl, PS)  192
36. TGGCAAGCATCCTGTA (sugars l1 d11 l1 d2 l1, PS)  190
37. ACTGCCTTCTTAC (sugars l1 d1 l1 d9 l1, PS)  188
38. GTTACTGCCTTCT (sugars l1 d9 l3, PS)  171
39. GTTACTGCCTTCTTAC (sugars ldldddddddddlldl, PS)  165
40. GTTACTGCCTTCTTAC (sugars l3 d9 l4, PS)  165
41. GTTACTGCCTTCTTAC (sugars lldldddddddldddl, PS)  155
42. GCAAGCATCCTGT (sugars l1 d9 l3, PS)  147
43. GTTACTGCCTTCTTAC (sugars l1 d1 l2 d9 l3, PS)  141
44. GTTACTGCCTTCTTAC (sugars l1 d10 l2 d2 l1, PS)  134
45. GTTACTGCCTTCTTAC (sugars l1 d10 l1 d3 l1, PS)  127
46. ACTGCCTTCTTAC (sugars l1 d2 l1 d6 l3, PS)  126
47. GTTACTGCCTTCTTAC (sugars ldddlddddddllddl, PS)  125
48. CAAGCATCCTGTA (sugars l2 d1 l1 d8 l1, PS)  123
49. GTTACTGCCTTCTTAC (sugars lddldddddddddldl, PS)  121
50. TACTGCCTTCTTA (sugars l1 d11 l1, PS)  112

Reference: the OligoGym collection
